# Test results: patent US11833162B2, “Macrocyclic derivatives, process for preparing same and pharmaceutical compositions containing same” (LES LABORATOIRES SERVIER, priority 2017, dated 2023)
# Tests used:
# [1] = target: Bcl-2 protein (histag-Bcl-2, UniProtKB P10415) (Homo sapiens, UniProt P10415); experiment: Inhibition of Bcl-2 by the fluorescence polarisation technique; assay type: binding; details: for IC50: fluorescence polarisation, 2 hours incubation, read-out: IC50 (μM) Bcl-2 FP
# Procedure: The fluorescence polarisation tests were carried out on microplates (384 wells). The Bcl-2 protein, labelled (histag-Bcl-2 such that Bcl-2 corresponds to the UniProtKB® primary accession number: P10415), at a final concentration of 5×10^−9M, is mixed with a fluorescent peptide (Fluorescein-REIGAQLRRMADDLNAQY), at a final concentration of 1.00×10^−9M in a buffer solution (Hepes 10 mM, NaCl 150 mM, Tween20 0.05%, pH 7.4), in the presence or absence of increasing concentrations of test compounds. After incubation for 2 hours, the fluorescence polarisation is measured.
# [2] = system: RS4; 11 leukaemia tumour line; experiment: In vitro cytotoxicity, Microculture Tetrazolium Assay (MTT); assay type: cell-based; details: 11 cells, 48 hours exposure
# Procedure: The cytotoxicity studies were carried out on the RS4; 11 leukaemia tumour line.
# The cells are distributed onto microplates and exposed to the test compounds for 48 hours.
# The cell viability is then quantified by a colorimetric assay, the Microculture Tetrazolium Assay (Cancer Res., 1987, 47, 939-942).
# Bcl-2 protein, sequence (P10415 whole entry): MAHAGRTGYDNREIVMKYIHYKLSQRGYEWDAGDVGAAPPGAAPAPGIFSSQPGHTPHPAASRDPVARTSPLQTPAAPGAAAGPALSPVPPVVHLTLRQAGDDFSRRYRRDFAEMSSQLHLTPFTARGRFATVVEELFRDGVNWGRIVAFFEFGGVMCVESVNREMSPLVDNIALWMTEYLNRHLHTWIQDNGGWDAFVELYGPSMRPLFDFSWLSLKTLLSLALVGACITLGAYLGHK
IC50 [1],"Bcl-2 FP, % at given concentration ([1]; @10 μM)",SMILES,"IC50 ([2]; Homo sapiens, RS4-11, 48 h)",IC50 [2]
0.0314 µM,,"Cc1c2cc(n1C)-c1cc(Cl)ccc1C(=O)N1CCc3c(cccc3OCCC[n+]3cccc(c3)N(c3ccc(O)cc3)C2=O)C1 [Example 30, 6-Chloro-14-(4-hydroxyphenyl)-10,11-dimethyl-2,13-dioxo-23-oxa-1,10,14-triaza-19-azoniahexacyclo[26.3.1.1˜9,12˜.1˜15,19˜.0˜3,8˜.0˜24,29˜]tetratriaconta-3,5,7,9(34),11,15(33),16,18,24,26,28-undecaene trifluoromethanesulphonate]",> 1880 nM,
0.0288 µM,,"Cc1c(N2C(=O)c3cc(n(C)c3C)-c3ccccc3C(=O)N3CCC(CCOc4cc(O)ccc42)CC3)cc(C#N)n1C [Example 28, 4-[3-Hydroxy-18,19-dimethyl-12,21-dioxo-7,8,9,10,18,21-hexahydro-6H,12H,22H-8,11-ethano-20,17-(metheno)dibenzo[b,j][1,4,8,13]oxatriazacycloocta-decin-22-yl]-1,5-dimethyl-1H-pyrrole-2-carbonitrile]",401 nM,
0.0153 µM,,"Cc1c2cc(n1C)-c1cc(Cl)ccc1C(=O)N1Cc3ccccc3C(CCOc3c(cnn3C)N(c3ccc(O)cc3)C2=O)C1 (stereo not shown) [Example 22, 11-Chloro-4-(4-hydroxyphenyl)-1,7,8-trimethyl-1,4,16,21,22,23-hexahydro-14H-15,21-methano-6,9-(metheno)dibenzo[j,o]pyrazolo[3,4-b][1,4,8,13]oxatriaza-cyclononadecine-5,14(8H)-dione]",11.8 nM,
0.0147 µM,,"Cc1c2cc(n1C)-c1cc(Cl)ccc1C(=O)N1CCc3c(cccc3C1)CCCOc1cc(C#N)cc(c1)N(c1ccc(O)cc1)C2=O [Example 14, 6-Chloro-14-(4-hydroxyphenyl)-10,11-dimethyl-2,13-dioxo-20-oxa-1,10,14-triazahexacyclo[26.3.1.1˜9,12˜.1˜15,19˜.0˜3,8˜.0˜24,29˜]tetratriaconta-3,5,7,9(34),11,15(33),16,18,24,26,28-undecaene-17-carbonitrile]",14.6 nM,
0.0655 µM,,"Cc1c2cc(n1C)-c1cc(Cl)ccc1C(=O)N1CCc3c(cccc3OCCCCOc3cccc(c3)N(c3ccc(O)cc3)C2=O)C1 [Example 3, 6-Chloro-14-(4-hydroxyphenyl)-10,11-dimethyl-20,25-dioxa-1,10,14-triazahexacyclo[28.3.1.1˜9,12˜.1˜15,19˜.0˜3,8˜.0˜26,31˜]hexatriaconta-3,5,7,9(36),11,15(35),16,18,26,28,30-undecaene-L 3-dione]",749 nM,
0.00385 µM,,"Cc1c2cc(n1C)-c1cc(Cl)ccc1C(=O)N1CCc3c(cccc3OCCOCCOc3ncc(cn3)N(c3ccc(O)cc3)C2=O)C1 [Example 38, 10-Chloro-2-(4-hydroxyphenyl)-5,6-dimethyl-24,27,30-trioxa-2,6,15,32,35-pentaazahexacyclo[29.2.2.1˜4,7˜.1˜15,19˜.0˜8,13˜.0˜18,23˜]heptatriaconta-1(33),4,7(37), 8,10,12,18,20,22,31,34-undecuene-3,14-dione]",23.1 nM,
0.268 µM,,"Cc1c2cc(n1C)-c1cc(Cl)ccc1C(=O)N1Cc3cccc(c3CC1C)OCCCc1c(cc(C#N)n1C)N(c1ccc(O)cc1)C2=O (single isomer, unassigned) [Example 25, (16R or S)-11-Chloro-4-(4-hydroxyphenyl)-1,7,8,16-tetramethyl-5,14-dioxo-4,5,8,16,17,23,24,25-octahydro-1H,14H-15,18-methano-6,9-(metheno)dibenzo[b,h]-pyrrolo[3,2-p][1,6,11,15]oxatriazacycloicosine-2-carbonitrile]",,809 nM
0.0123 µM,,"Cc1c2cc(n1C)-c1cc(Cl)ccc1C(=O)N1Cc3cccc(c3CC1CN1CCOCC1)OCCCc1c(cnn1C)N(c1ccc(O)cc1)C2=O (stereo not shown) [Example 17, 11-Chloro-4-(4-hydroxyphenyl)-1,7,8-trimethyl-16-(morpholin-4-ylmethyl)-4,16,17,23,24,25-hexahydro-1H,14H-15,18-methano-6,9-(metheno)dibenzo-[b,h]pyrazolo[4,3-p][1,6,11,15]oxatriazacycloicosine-5,14(8H)-dione]",62.8 nM,
0.0143 µM,,"Cc1c2cc(n1C)-c1cc(Cl)ccc1C(=O)N1CCc3c(cccc3OCCc3c(cnn3C3CCOC3)N(c3ccc(O)cc3)C2=O)C1 (stereo not shown) [Example 23, 11-Chloro-4-(4-hydroxyphenyl)-7,8-dimethyl-1-(tetrahydrofuran-3-yl)-1,4,16,17,23,24-hexahydro-14H-15,18-methano-6,9-(metheno)dibenzo[l,r]pyrazolo[3,4-d][1,6,10,15]oxatriazacyclononadecine-5,14(8H)-dione]",73.3 nM,
,41.5% @10 μM,"Cc1c2cc(n1C)-c1cc(Cl)ccc1C(=O)N1Cc3cccc(c3C1)OCCOCCOc1ncc(cn1)N(c1ccc(O)cc1)C2=O [Example 36, 10-Chloro-2-(4-hydroxyphenyl)-5,6-dimethyl-23,26,29-trioxa-2,6,15,31,34-pentaazahexacyclo[28.2.2.1˜4,7˜.1˜15,18˜.0˜8,13˜.0˜17,22˜]hexatriaconta-1(32),4,7(36),8,10,12,17,19,21,30,33-undecaene-3,14-dione]",> 600 nM,
0.0067 µM,,"Cc1c2cc(n1C)-c1cc(Cl)ccc1C(=O)N1CCc3c(cccc3OCCOc3cccc(c3)N(c3ccc(O)cc3)C2=O)C1 [Example 1, 6-Chloro-14-(4-hydroxyphenyl)-10,11-dimethyl-20,23-dioxa-1,10,14-triazahexacyclo[26.3.1.1˜9,12˜.1˜15,19−.0˜3,8˜.0˜24.29˜]tetratriaconta-3,5,7,9(34),11,15(3.3),16,18,24,26,28-undecaene-2,13-dione]",107 nM,
0.00205 µM,,"Cc1c2cc(n1C)-c1cc(Cl)ccc1C(=O)N1CCc3c(cccc3OCCCOc3cc(C#N)cc(c3)N(c3ccc(O)cc3)C2=O)C1 [Example 5, 6-Chloro-14-(4-hydroxyphenyl)-10,11-dimethyl-2,13-dioxo-20,24-dioxa-1,10,14-triazahexacyclo[27.3.1.1˜9,12˜.1˜15,19˜.0˜3,8˜.0˜25,30˜]pentatriaconta-3,5,7,9(35),11,15(34),16,18,25,27,29-undecaene-17-carbonitrile]",21.4 nM,
0.0023 µM,,"Cc1c2cc(n1C)-c1cc(Cl)ccc1C(=O)N1CCc3c(cccc3OCCOc3cc(C#N)cc(c3)N(c3ccc(O)cc3)C2=O)C1 [Example 4, 6-Chloro-14-(4-hydroxyphenyl)-10,11-dimethyl-2,13-dioxo-20,23-dioxa-1,10,14-triazahexacyclo[26.3.1.1˜9,12˜.1˜5,19˜.0˜3,8˜.0˜24.29˜]tetratriaconta-3,5,7,9(34),11,15(33),16,18,24,26,28-undecaene-17-carbonitrile]",7.73 nM,
0.00615 µM,,"Cc1c2cc(n1C)-c1cc(Cl)ccc1C(=O)N1CCc3c(cccc3OCCCn3c(C#N)cc(c3C)N(c3ccc(O)cc3)C2=O)C1 [Example 8, 6-Chloro-14-(4-hydroxyphenyl)-10,11,32-trimethyl-2,13-dioxo-22-oxa-1,10,14,18-tetraazahexacyclo[25.3.1.1˜9,12˜.1˜15,18˜.0˜3,8˜.0˜23,28˜]tritriaconta-3,5,7,9(33),11,15(32),16,23,25,27-decaene-17-carbonitrile]",49.3 nM,
0.003 µM,,"Cc1c2cc(n1C)-c1cc(Cl)ccc1C(=O)N1CCc3c(cccc3OCCCCn3c(C#N)cc(c3C)N(c3ccc(O)cc3)C2=O)C1 [Example 7, 6-Chloro-14-(4-hydroxyphenyl)-10,11,33-trimethyl-2,13-dioxo-23-oxa-1,10,14,18-tetraazahexacyclo[26.3.1.1˜9,12˜.1˜15,18˜.0˜3,8˜.0˜24,29˜]tetratriaconta-3,5,7,9(34),11,15(33),16,24,26,28-decaene-17-carbonitrile]",4.94 nM,
0.0037 µM,,"Cc1c2cc(n1C)-c1cc(Cl)ccc1C(=O)N1CCc3c(cccc3OCCCCn3cc(cn3)N(c3ccc(O)cc3)C2=O)C1 [Example 15, Chloro-14-(4-hydroxyphenyl)-10,11-dim ethyl-23-oxa-1,10,14,17,18-pentaazahexacyclo[26.3.1.1˜9,12˜.1˜15,18˜.0˜3,8˜.0˜24,29˜]tetratriaconta-3,5,7, 9(34),11,15(33),16,24,26,28-deca ene-2,13-dione]",11.6 nM,
0.0148 µM,,"Cc1c2cc(n1C)-c1cc(Cl)ccc1C(=O)N1CCc3c(cccc3OCCOc3c(cnn3C)N(c3ccc(O)cc3)C2=O)C1 [Example 21, 11-Chloro-4-(4-hydroxyphenyl)-1,7,8-trimethyl-1,4,16,17,23,24-hexahydro-14H-15,18-methano-6,9-(metheno)dibenzo[m,s]pyrazolo[3,4-e][1,4,7,11,16]dioxa-triazacycloeicosin-5,14(8H)-dione]",131 nM,
